In patent US20160346249A1 (priority 2012, published 2016):
Several values for one entry are separate records, joined by “and”; a condition that tells them apart may be missing. Identical values can stand only once.

Assay: Single dose 300 mg / 450 mg pharmacokinetic, safety and tolerability study in healthy male and female subjects
Conditions: for concentration at 1 h / concentration at 2 h / concentration at 3 h / concentration at 4 h / concentration at 6 h / concentration at 8 h / concentration at 10 h / concentration at 12 h / concentration at 18 h / concentration at 24 h / concentration at […] / half-life / AUC(0-t) / Cmax / Tmax / concentration at 0 h / concentration at 0.5 h: plasma, po; for Percent of Dose in Urine (0-24 hr) / Ratio DOV 216,298/DOV 21,947 in urine (0-24 hr): Mean (SD)
[1] = single oral 300 mg DOV 21,947 HCl IR
[2] = single oral 450 mg DOV 21,947 HCl IR

Text: Fourteen subjects, divided equally between males and females, were enrolled in the study and randomized between test article (5/sex) and placebo (2/sex). […] All subjects met the inclusion and exclusion criteria for entry into the study as detailed in the protocol and signed an informed consent form.
The subjects were confined to the clinical study site from Day −1 to the morning of Day 2, when they underwent a brief physical examination, clinical laboratory tests, and a physician visit before they were discharged. On Day 7, they reported to the clinical site again and were confined to the site until the morning of Day 9. At that time, they underwent a complete physical examination, clinical laboratory tests, and a physician's visit before they were discharged from the study. All subjects were fasted overnight on Days −1 and 7 from approximately 22:00 to approximately 4 hours post-dose on Days 1 and 8, at which time they received a standard lunch.
Subjects that received the placebo (2/sex) ingested six identical looking capsules with no drug. […] Capsules on both days were ingested with 240 mL water. […] Samples were collected into lithium heparin-containing Vacutainers® and centrifuged at approximately 3000 rpm to obtain the plasma fraction. The plasma was split into two polypropylene tubes and stored at −20° C. […] The urine volumes were recorded and an aliquot was stored for drug concentration measurements.
Validated LC/MS/MS assays were used for analyses; the assay range for both analytes in plasma and urine were 5.00 to 2000 ng/mL.
Plasma concentration-time data for each subject were analyzed with WinNonlin, version 4.1 (Pharsight Corporation, Mountain View, Calif.) using a non-compartmental model. […] Plasma concentrations listed as not detected (ND) or below the lower limit of quantitation (LLOQ) were set to zero. The values of Cmax and Tmax were the observed values for each subject. AUC0-t was determined using the linear trapezoidal rule whenever the concentration data were increasing and the logarithmic trapezoidal rule any time that the concentration data were decreasing. The apparent λz was calculated as the negative slope of the log-linear terminal portion of the blood concentration-time curve using linear regression. To allow for accurate calculation of λz, a minimum of three observations, selected by WinNonlin, was used. The t½ was calculated as ln 2/λz. AUC0-t was extrapolated to infinity (AUC0-∞) as follows: AUC0-∞=AUC0-t+Clast/λz where Clast is the last quantifiable concentration. The apparent oral clearance (CL/F) was calculated as Dose/AUC0-∞. The apparent oral volume of distribution (Vz/F) was calculated as Dose/λz×AUC0-∞. The mean residence time from time zero to infinity (MRT0-∞) was calculated as AUMC0-∞/AUC0-∞.

**Q.** For O=C1NCC2(c3ccc(Cl)c(Cl)c3)CC12 (centres unmarked) [EB-10101, 5-(3,4-dichloro-phenyl)-3-aza-bicyclo[3.1.0]hexan-2-one], which concentration at 1 h (female, human, 450 mg) is on record?
**A.** The concentration at 1 h was 285 ng/mL.

**Q.** And the concentration at 2 h (female, human, 450 mg)?
**A.** The concentration at 2 h was 1030 ng/mL.

**Q.** What about the concentration at 3 h (female, human, 450 mg) of the same compound?
**A.** The concentration at 3 h was 1650 ng/mL.

**Q.** What about the concentration at 4 h (female, human, 450 mg) of the same compound?
**A.** The concentration at 4 h was 2180 ng/mL.

**Q.** What about the concentration at 6 h (female, human, 450 mg) of the same compound?
**A.** The concentration at 6 h was 2710 ng/mL.

**Q.** And the concentration at 8 h (female, human, 450 mg)?
**A.** Its concentration at 8 h is 2990 ng/mL.

**Q.** What about the concentration at 10 h (female, human, 450 mg) of the same compound?
**A.** The concentration at 10 h was 3030 ng/mL.

**Q.** And the concentration at 12 h (female, human, 450 mg)?
**A.** Its concentration at 12 h is 2930 ng/mL.

**Q.** What about the concentration at 18 h (female, human, 450 mg) of the same compound?
**A.** Its concentration at 18 h is 2140 ng/mL.

**Q.** And the concentration at 24 h (female, human, 450 mg)?
**A.** The concentration at 24 h was 2390 ng/mL.

**Q.** And the concentration at […] (female, human, 450 mg)?
**A.** Its concentration at […] is 0 ng/mL and 155 ng/mL and 539 ng/mL and 660 ng/mL.

**Q.** What about the half-life (female, human, 450 mg, t½ (Harmonic mean), single oral 450 mg DOV 21,947 HCl IR, N = 5) of the same compound?
**A.** The half-life was 24.5 h.

**Q.** And the half-life (female, human, 450 mg, t½, single oral 450 mg DOV 21,947 HCl IR, N = 5, arithmetic mean)?
**A.** Its half-life is 41.8 h.

**Q.** What about the “exposure to lactam greater than parent drug over 24 hr” value (human, in vivo) of the same compound?
**A.** The value was “approximately 70%”.

**Q.** What about the AUC(0-t) (male, human, 300 mg) of the same compound?
**A.** The AUC(0-t) was 29200 ng·h/mL.

**Q.** What about the Cmax (male, human, 300 mg) of the same compound?
**A.** Its Cmax is 1740 ng/mL.

**Q.** What about the Tmax (male, human, 300 mg) of the same compound?
**A.** The Tmax was 6.4 h.

**Q.** And the concentration at 0 h (male, human, 300 mg)?
**A.** The concentration at 0 h was 0 ng/mL.

**Q.** And the concentration at 0.5 h (male, human, 300 mg)?
**A.** Its concentration at 0.5 h is 62.9 ng/mL.

**Q.** What about the concentration at 1 h (male, human, 300 mg) of the same compound?
**A.** The concentration at 1 h was 404 ng/mL.

**Q.** And the concentration at 2 h (male, human, 300 mg)?
**A.** Its concentration at 2 h is 1040 ng/mL.

**Q.** And the concentration at 3 h (male, human, 300 mg)?
**A.** Its concentration at 3 h is 1490 ng/mL.

**Q.** What about the concentration at 4 h (male, human, 300 mg) of the same compound?
**A.** The concentration at 4 h was 1470 ng/mL.

**Q.** And the concentration at 6 h (male, human, 300 mg)?
**A.** Its concentration at 6 h is 1520 ng/mL.

**Q.** And the concentration at 8 h (male, human, 300 mg)?
**A.** Its concentration at 8 h is 1590 ng/mL.

**Q.** And the concentration at 10 h (male, human, 300 mg)?
**A.** Its concentration at 10 h is 1670 ng/mL.

**Q.** What about the concentration at 12 h (male, human, 300 mg) of the same compound?
**A.** The concentration at 12 h was 1410 ng/mL.

**Q.** What about the concentration at 18 h (male, human, 300 mg) of the same compound?
**A.** Its concentration at 18 h is 1100 ng/mL.

**Q.** And the concentration at 24 h (male, human, 300 mg)?
**A.** The concentration at 24 h was 820 ng/mL.

**Q.** And the concentration at […] (male, human, 300 mg)?
**A.** Its concentration at […] is 3.03 ng/mL and 238 ng/mL and 629 ng/mL and 753 ng/mL.

**Q.** And the half-life (male, human, 300 mg, t½ (Harmonic mean), single oral 300 mg DOV 21,947 HCl IR, N = 5)?
**A.** The half-life was 13.7 h.

**Q.** And the half-life (male, human, 300 mg, t½, single oral 300 mg DOV 21,947 HCl IR, N = 5, arithmetic mean)?
**A.** Its half-life is 15.3 h.

**Q.** And the AUC(0-t) (male, human, 450 mg)?
**A.** The AUC(0-t) was 46100 ng·h/mL.

**Q.** And the Cmax (male, human, 450 mg)?
**A.** Its Cmax is 2550 ng/mL.

**Q.** And the Tmax (male, human, 450 mg)?
**A.** The Tmax was 9.2 h.

**Q.** And the concentration at 0 h (male, human, 450 mg)?
**A.** The concentration at 0 h was 0 ng/mL.

**Q.** And the concentration at 0.5 h (male, human, 450 mg)?
**A.** Its concentration at 0.5 h is 107 ng/mL.

**Q.** And the concentration at 1 h (male, human, 450 mg)?
**A.** Its concentration at 1 h is 388 ng/mL.

**Q.** And the concentration at 2 h (male, human, 450 mg)?
**A.** The concentration at 2 h was 1620 ng/mL.

**Q.** What about the concentration at 3 h (male, human, 450 mg) of the same compound?
**A.** The concentration at 3 h was 1980 ng/mL.

**Q.** What about the concentration at 4 h (male, human, 450 mg) of the same compound?
**A.** Its concentration at 4 h is 2150 ng/mL.

**Q.** What about the concentration at 6 h (male, human, 450 mg) of the same compound?
**A.** Its concentration at 6 h is 2320 ng/mL.

**Q.** What about the concentration at 8 h (male, human, 450 mg) of the same compound?
**A.** Its concentration at 8 h is 2360 ng/mL.

**Q.** And the concentration at 10 h (male, human, 450 mg)?
**A.** The concentration at 10 h was 2520 ng/mL.

**Q.** What about the concentration at 12 h (male, human, 450 mg) of the same compound?
**A.** Its concentration at 12 h is 2310 ng/mL.

**Q.** What about the concentration at 18 h (male, human, 450 mg) of the same compound?
**A.** The concentration at 18 h was 1880 ng/mL.

**Q.** And the concentration at 24 h (male, human, 450 mg)?
**A.** Its concentration at 24 h is 1450 ng/mL.

**Q.** And the concentration at […] (male, human, 450 mg)?
**A.** The concentration at […] was 0 ng/mL and 214 ng/mL and 752 ng/mL and 954 ng/mL.

**Q.** And the half-life (male, human, 450 mg, t½ (Harmonic mean), single oral 450 mg DOV 21,947 HCl IR, N = 5)?
**A.** The half-life was 16.6 h.

**Q.** What about the half-life (male, human, 450 mg, t½, single oral 450 mg DOV 21,947 HCl IR, N = 5, arithmetic mean) of the same compound?
**A.** The half-life was 23.4 h.

**Q.** What about the λz (single oral 300 mg DOV 21,947 HCl IR, Female, N = 5) of the same compound?
**A.** The λz was 0.046^b hr^−1.

**Q.** What about the λz (single oral 300 mg DOV 21,947 HCl IR, Male, N = 5) of the same compound?
**A.** Its λz is 0.051 h⁻¹.

**Q.** What about the “Percent of Dose in Urine (0-24 hr)” value [1] of the same compound?
**A.** The value was 0.075 (0.024) Percent of Dose.

**Q.** What about the “Ratio DOV 216,298/DOV 21,947 in urine (0-24 hr)” value [1] of the same compound?
**A.** Its value is 0.195 (0.092).

**Q.** And the “Mean Amount in Urine” value (single oral 300 mg DOV 21,947 HCl IR, Period 0-1 hr)?
**A.** The value was 0.0 µg.

**Q.** What about the “Mean Amount in Urine” value (single oral 300 mg DOV 21,947 HCl IR, Period 1-2 hr) of the same compound?
**A.** Its value is 2.7 µg.

**Q.** What about the “Mean Amount in Urine” value (single oral 300 mg DOV 21,947 HCl IR, Period 2-4 hr) of the same compound?
**A.** Its value is 52.5 µg.

**Q.** What about the “Mean Amount in Urine” value (single oral 300 mg DOV 21,947 HCl IR, Period 4-8 hr) of the same compound?
**A.** The value was 56.2 µg.

**Q.** And the “Mean Amount in Urine” value (single oral 300 mg DOV 21,947 HCl IR, Period 8-12 hr)?
**A.** Its value is 34.8 µg.

**Q.** What about the “Mean Amount in Urine” value (single oral 300 mg DOV 21,947 HCl IR, Period 12-24 hr) of the same compound?
**A.** Its value is 47.8 µg.

**Q.** What about the “Mean Amount in Urine” value (single oral 300 mg DOV 21,947 HCl IR, Total (0-24 hr)) of the same compound?
**A.** Its value is 194 µg.

**Q.** What about the λz (single oral 300 mg DOV 21,947 HCl IR, mean, N = 10) of the same compound?
**A.** Its λz is 0.049^b hr^−1.

**Q.** What about the λz (single oral 450 mg DOV 21,947 HCl IR, Female, N = 5) of the same compound?
**A.** Its λz is 0.028 h⁻¹.

**Q.** And the λz (single oral 450 mg DOV 21,947 HCl IR, Male, N = 5)?
**A.** The λz was 0.042 h⁻¹.

**Q.** What about the “Percent of Dose in Urine (0-24 hr)” value [2] of the same compound?
**A.** The value was 0.067 (0.035) Percent of Dose.

**Q.** What about the “Ratio DOV 216,298/DOV 21,947 in urine (0-24 hr)” value [2] of the same compound?
**A.** The value was 0.256 (0.173).

**Q.** And the “Mean Amount in Urine” value (single oral 450 mg DOV 21,947 HCl IR, Period 0-1 hr)?
**A.** The value was 0.0 µg.

**Q.** And the “Mean Amount in Urine” value (single oral 450 mg DOV 21,947 HCl IR, Period 1-2 hr)?
**A.** The value was 2.1 µg.

**Q.** What about the “Mean Amount in Urine” value (single oral 450 mg DOV 21,947 HCl IR, Period 2-4 hr) of the same compound?
**A.** Its value is 45.2 µg.

**Q.** What about the “Mean Amount in Urine” value (single oral 450 mg DOV 21,947 HCl IR, Period 4-8 hr) of the same compound?
**A.** Its value is 89.3 µg.

**Q.** What about the “Mean Amount in Urine” value (single oral 450 mg DOV 21,947 HCl IR, Period 8-12 hr) of the same compound?
**A.** Its value is 61.2 µg.

**Q.** And the “Mean Amount in Urine” value (single oral 450 mg DOV 21,947 HCl IR, Period 12-24 hr)?
**A.** Its value is 63.5 µg.

**Q.** What about the “Mean Amount in Urine” value (single oral 450 mg DOV 21,947 HCl IR, Total (0-24 hr)) of the same compound?
**A.** Its value is 261 µg.

**Q.** What about the λz (single oral 450 mg DOV 21,947 HCl IR, mean, N = 10) of the same compound?
**A.** The λz was 0.035 h⁻¹.
